# In US11633512B2, “Method for disinfecting soils or other agricultural growing media” (Agrozono, S.L., priority 2017, dated 2023):
# Like-named read-outs stand apart in the source and are kept apart here.
# Columns and labels:
# [1] = cited from earlier work
# nematodes = experiment: Evolution of nematodes in soil after ozone treatment and inoculation of microorganisms; assay type: in vivo; conditions: 5.5 ppm of ozone for 2 hours; before treatment 480 juveniles/100 cc of earth
# nematodes (Meloidogyne) = experiment: Disinfection of nematodes in Padrón pepper crop (greenhouse); assay type: in vivo, Meloidogyne sp.
# Method: On a 500 m^2 surface of a greenhouse, with a water consumption of 3000 l/h, the disinfection with ozone was performed at a dose of 6 ppm, revising with the REDOX readings that a reading of 1000 mV is obtained in the farthest drip emitters, starting from a value of 185 mV in the irrigation water without ozone.
# When the treatment ends, the inoculation of the microorganism formula (1) is performed (see example 1). Seven days after performing the treatment, samples of earth are taken to see the level of nematode infestation, observing a decrease of 90% of the population.
# [2] = tested on: tomato plants, Lycopersicum esculentum; experiment: Phytotoxicity and plant development of tomato plants transplanted into treated soil; assay type: in vivo
# Method: Afterwards, as mentioned earlier, once the first disinfection was finished, tomato seedlings were transplanted into the bins in order to evaluate the “residual effect” of the treatment. Subsequently, the study of the plant development of the plants was performed.
# After the first application of the disinfection method, on 19 Sep. 2014, 2 tomato plants were transplanted per container. The residual effect of the ozone was evaluated.
# Throughout the assay, the parameters evaluated were: • Flow rate and ppm ozone at the outlet. • Microbial evaluation of the soil (t=0; t=7 days and t=30 days). • Relationship of the depth with the possible fungicidal effect. • Having established the tomato plants, it was evaluated if the treatments caused phytotoxicity.
# The parameters that will be observed in the crop will be the appearance of necrosis and burning on leaves and fruits. • Plant development of the crop.
# After the first application of the treatment with ozone, 2 tomato plants were transplanted into each of the containers. The growth of the plants was evaluated for three months, ending the analysis of this parameter on 2 January due to frost in the area (see FIGS. 5a and 5b).
# microorganisms = conditions: cited from earlier work
# coliform bacteria = conditions: cited from earlier work
# [3] = tested on: Sclerotinia sp, Fusarium oxysporum and Phytophthora citrophthora; experiment: Disinfection of infected soil in containers: survival of phytopathogenic fungi; assay type: in vivo; set-up: reduction of pathogenic fungi: concentration or dose not given beside the values
# [4] = tested on: Erwinia amylovora and Clavibacter michiganensis; experiment: Disinfection of infected soil in containers: survival of phytopathogenic bacteria; assay type: in vivo
# Method: In order to achieve the aforementioned objectives, soil without crops was infected with the phytopathogenic species Sclerotinia, Fusarium, Erwinia, Phytophthora and Clavibacter. The assay was performed in Lorca (Murcia). It took place in open air in bins with soil without crops and wherein tomatoes, peppers and melons had been grown previously. After performing the first application of the method of the present invention, tomato plants, Lycopersicum esculentum, were transplanted, the response of the plants to the treatments being evaluated.
# The microbiological content of the soil was evaluated at different depths: 20, 40 and 60 cm., before and after the applications.
# Containers were installed with a known volume of 1000 l (1×1×1 m) in field. Moreover, a medium proceeding from a greenhouse with melons, peppers and tomatoes having been grown there previously was selected and homogenised. Subsequently, the containers were filled with this medium.
# In the laboratory, the following species were cultivated in vitro: • Phytopathogenic bacteria: Erwinia amylovora and Clavibacter michiganensis • Phytopathogenic fungi: Sclerotinia sp, Fusarium oxysporum and Phytophthora citrophthora
# Each microorganism was grown in liquid medium until reaching a concentration of 10^8 ufc/ml. For each of the bins, 1 litre of microbial solution was prepared.
# Then the pathogenic microorganisms were inoculated in the medium, periodic irrigations were performed until reaching the capacity of the medium, samples were taken at different depths (20 cm, 40 cm and 60 cm) and the phytopathogens were counted in said samples, in order to verify the permanence and presence of phytopathogens in the soil.
# A first application of the disinfection method with ozone was performed. To do so, the ozonation equipment was inserted into the irrigation system and the parameters of said equipment were adjusted in order to achieve ozonated water with at least 2 ppm of dissolved ozone. Subsequently, the soil was left to rest for 30 min and the tomato plants, Lycopersicum esculentum, were transplanted. Subsequently, a second application of the disinfection method with ozone was performed in the same conditions indicated previously and, after letting the treated soil rest for 30 min, the microorganism formula (1) was inoculated.
# In order to analyse the effect of the treatment on the disinfection of the soil, samples were taken at different depths (20 cm, 40 cm and 60 cm) and on different dates, and the microbial load in each of the samples was analysed.
# In this section the data obtained is described. As explained in the assay protocol, soil samples were taken at different depths (20 cm, 40 cm and 60 cm) and quality controls were performed quantifying the number of pathogenic fungi and bacteria present.
smiles,measurement,setting,value
O=[O+][O-] [ozone],useful life of ozone,[1]; water temperature of 15° C.,30 min
same,useful life of ozone,[1]; water temperature of 25° C.,15 min
same,time until degradation of the ozone into oxygen,"[1]; water without organic matter, pH of 7, water temperature of 15° C.",about 30 minutes
same,presence of juveniles after the treatment with ozone,nematodes,44 /100 cc of earth
same,Meloidogyne sp. after the disinfection,"nematodes (Meloidogyne); ozonated irrigation, crop in full production, before disinfection 88 juveniles/100 cc soil",8 juveniles/1 cc soil
same,decrease of the nematode population,"nematodes (Meloidogyne); ozone 6 ppm, then inoculation of microorganism formula (1), soil samples seven days after treatment",90%
same,plant development of tomato plants,"[2]; plants transplanted after first application into infected, treated soil",vigorous plant development
same,phytotoxicity: growth and plant development,[2]; three months after the transplant,normal growth and plant development
same,application period necessary for disinfection,microorganisms,5 s
same,time needed in order to eliminate microorganisms,microorganisms,four
same,"time to kill 99% of 60,000 coliform bacteria/ml",coliform bacteria,2.8 s
same,reduction of pathogenic fungi,"[3]; application 1, 24 hours after application, depth 20 cm",100%
same,reduction of pathogenic fungi,"[3]; application 1, 24 hours after application, depth 60 cm",100%
same,reduction of pathogenic fungi,"[3]; application 2, depth 20 cm",100%
same,fungi present a month after application,"[3]; application 2, depth 20 cm, 30 days",traces of fungi appearing a month later
same,reduction of pathogenic fungi,"[3]; application 2, depth 40 cm, effect prolonged for 30 days",100%
same,reduction of pathogenic fungi,"[3]; application 2, depth 60 cm, effect prolonged for 30 days",100%
same,disinfection against the phytopathogenic fungi tested,"[3]; overall result of the soil assays, ozonated water at least 2 ppm",100%
same,mortality of pathogenic mesophilic bacteria,[4]; after first application of ozonated water,less than 50%
same,reduction of pathogenic mesophilic bacteria,[4]; after second application,50%
same,reduction of pathogenic mesophilic bacteria,"[4]; after second application, listed as ozonated water",at least 50%
same,reduction of populations of pathogenic bacteria compared with control,"[4]; application 1, all depths tested except 60 cm",less than 50%
same,completeness of reduction of pathogenic bacteria,[4]; application 2,the reduction was not complete
same,reduction of pathogenic mesophilic bacteria,"[4]; second application, depth 60 cm",60%
